Reference: PubChem BioAssay (NCI)
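Grown in 96-well plates, cells were treated for 48 hours with each compound at five concentrations. Insufficient inhibition: endpoint recorded as highest concentration tested. GI50 is the concentration that inhibits growth by half. TGI marks complete inhibition of growth.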

Key:
Experiment in all cases: growth of human tumour cells (NCI), 48 h
MDA-N = system: MDA-N
DLD-1 colon = system: DLD-1 colon
DMS 273 small cell lung = system: DMS 273 small cell lung
HOP-18 NSCLC = system: HOP-18 NSCLC
DMS 114 small cell lung = system: DMS 114 small cell lung
LXFL 529 NSCLC = system: LXFL 529 NSCLC
M19-MEL melanoma = system: M19-MEL melanoma
SNB-78 CNS = system: SNB-78 CNS
RXF-631 renal = system: RXF-631 renal

| Compound | TGI (MDA-N) [µM] | TGI (DLD-1 colon) [µM] | TGI (DMS 273 small cell lung) [µM] | TGI (HOP-18 NSCLC) [µM] | TGI (DMS 114 small cell lung) [µM] | TGI (LXFL 529 NSCLC) [µM] | TGI (M19-MEL melanoma) [µM] | TGI (SNB-78 CNS) [µM] | TGI (RXF-631 renal) [µM] | GI50 (DMS 114 small cell lung) [µM] |
| --- | --- | --- | --- | --- | --- | --- | --- | --- | --- | --- |
| C[C@]12CC[C@H](O)CC1=CC[C@@H]1C2CC[C@]2(C)c3nn(-c4ccc(F)cc4)nc3CC12 (stereo partly specified) | > 100 | – | – | – | – | – | – | – | – | – |
| COc1ccccc1C1=C2C(=O)N(C)C(c3ccccc3OC)=C2C(=O)N1C | > 100 | – | – | – | – | – | – | – | – | – |
| N/N=C(\CC1OC(=O)c2ccccc21)c1ccco1 (stereo unspecified) | – | > 100 | > 100 | 0.343 | > 100 | > 100 | > 100 | – | – | – |
| CN(C)CCCN=C(N)N | > 100 | – | – | – | – | – | – | – | – | – |
| C1CNCCNCCNCCN1 | – | > 100 | > 100 | > 100 | > 100 | > 100 | > 100 | > 100 | – | – |
| Cc1cc(O)c(C(=O)CC2(O)C(=O)Nc3c(Cl)cc(Cl)cc32)c(=O)o1 (stereo unspecified) | – | > 100 | > 100 | > 100 | – | > 100 | > 100 | > 100 | > 100 | – |
| CC(=O)OCSc1ncnc2c1ncn2CN1CCOCC1 | – | > 100 | > 100 | > 100 | > 100 | > 100 | > 100 | > 100 | – | – |
| COc1cc2c(c(OC)c1OC)-c1ccc(SC)c(=O)cc1[C@@H](NC(=O)c1ccc(OC(C)=O)cc1)CC2 | – | 28.8 | > 100 | – | 0.0336 | – | > 100 | – | 18.1 | 0.0144 |
| COC1/C(=C\C(=O)OC(C)(C)C)c2ccccc2N1C(C)=O (stereo unspecified) | – | > 100 | > 100 | > 100 | > 100 | > 100 | > 100 | > 100 | > 100 | – |
| N#CCc1ccc(C(C#N)/C(CCCC(=O)Nc2cccc([N+](=O)[O-])c2)=N\NC(=O)NN)cc1 (stereo unspecified) | – | > 100 | > 100 | > 100 | > 100 | > 100 | > 100 | > 100 | – | – |
| O=[N+]([O-])c1ccc(Sc2c3ccccc3nc3ccccc23)cc1 | – | > 100 | – | > 100 | – | > 100 | > 100 | > 100 | > 100 | – |
| Cc1cccc(C)c1NC(=O)CCCC(=O)CC(=O)/C=C/c1ccccc1 | – | > 100 | > 100 | > 100 | > 100 | > 100 | > 100 | > 100 | > 100 | – |
| CCOC(=O)/C(=C\c1ccc(OCc2ccccc2)c(OC)c1)C(=O)c1ccccc1 | – | – | – | – | 41.4 | – | 50 | 76.8 | – | – |
| CN(C)CC(/C(Cc1ccccc1)=N\NC(=O)c1ccncc1)c1ccccc1 (stereo unspecified) | – | > 100 | – | – | 81.8 | > 100 | > 100 | – | > 100 | – |
| c1ccc(C(=NNc2nc3ccccc3o2)c2ccccn2)nc1 | 25.9 | – | – | – | – | – | – | – | – | – |
| CC1(C)COCN1COC1CCCCC1 | > 100 | – | – | – | – | – | – | – | – | – |
| O=C1C(=Cc2ccco2)C(=O)C2CCCCC12 (stereo unspecified) | > 100 | – | – | – | – | – | – | – | – | – |
| FC(F)(F)c1cccc(COCCN2CCN(Cc3cccc(C(F)(F)F)c3)CC2)c1 | 34.4 | – | – | – | – | – | – | – | – | – |
| O=C1C(Cl)=C(Oc2ccc([N+](=O)[O-])cc2)C(=O)c2c(O)ccc(O)c21 | > 31.6 | – | – | – | – | – | – | – | – | – |
| Cc1nc2c(=O)[nH]c(=O)n(C)c2[nH]c1=O | – | > 100 | > 100 | – | – | > 100 | > 100 | – | – | – |
| NCCCN(CCCN)CCCNCc1c2ccccc2c(CNCCCN(CCCN)CCCN)c2ccccc12 | – | 28.8 | 17 | 20.7 | – | 22.6 | 20.4 | 79.9 | 43.7 | – |
| O=C(CNC(=O)OCc1ccccc1)Oc1ccccc1 | – | > 100 | > 100 | > 100 | > 100 | > 100 | > 100 | > 100 | – | – |
| CC1Cc2c(N)nc(NN)nc2NC1=O (stereo unspecified) | – | > 100 | > 100 | > 100 | > 100 | – | > 100 | – | – | – |
